Measured values published in US20220227997A1, “Elastomeric silicone compositions comprising glycerol, cyclodextrin and octenidine” (Coloplast A/S, priority 2019, published 2022).
Structures can show the parent of a compound that is named as a salt.

Key:
Candida albicans = details: suspension test after 5 minutes of exposure; cited from earlier work
Staphylococcus aureus = details: suspension test after 5 minutes of exposure; cited from earlier work
Proteus mirabilis = details: suspension test after 5 minutes of exposure; cited from earlier work
Escherichia coli = details: suspension test after 5 minutes of exposure; cited from earlier work
Pseudomonas aeruginosa = details: suspension test after 5 minutes of exposure; cited from earlier work
[1] = Solubilization of octenidine in glycerol; type: physicochemical; details: without cyclodextrin
Description: Octenidine is an amphiphilic substance therefore its solubility in glycerol is negligible, but may form micelles for higher solubility. In this study β-cyclodextrin (βCD) was used as a tool for allowing significant amounts of hydrophobic substances to be dissolved in hydrophilic media such as glycerol. Cyclodextrins as cyclic oligosaccharides that form host-guest complexes with hydrophobic molecules thereby enabling multiple potential uses. Here octenidine (0.35 g) and β-cyclodextrin (0.3182 g) were added to glycerol. The molar ratio between octenidine and β-cyclodextrin in the example was 2:1. The mixture was heated up to 80° C. and agitated using a magnetic stirrer until a clear solution was obtained (usually no longer than 30 minutes). Obtaining a clear mixture is indicative of successful preparation of a βCD-octenidine complex.

[2] = test system: gram positive and gram negative bacteria; details: generally; cited from earlier work
[3] = in water; estimated by Steward et al.; cited from earlier work

Row | Structure (SMILES) | Effective Concentration (Candida albicans) [%] | Effective Concentration (Staphylococcus aureus) [%] | Effective Concentration (Proteus mirabilis) [%] | Effective Concentration (Escherichia coli) [%] | Effective Concentration (Pseudomonas aeruginosa) [%] | solubility in glycerol [1] | Effective concentrations in suspension [2] | critical micellar concentration [3] [mM]
1 | [H]/N=C(\N/C(=N/[H])NCCCCCCNC(=N)NC(=N)Nc1ccc(Cl)cc1)Nc1ccc(Cl)cc1 [Chlorhexidine digluconate] | 0.025 | >0.2 | >0.2 | 0.1 | >0.2 | – | – | –
2 | CCCCCCCCN=c1ccn(CCCCCCCCCCn2ccc(=NCCCCCCCC)cc2)cc1 [Octenidine dihydrochloride, N-octyl-1-[10-(4-octyliminopyridin-1-yl)decyl]pyridin-4-imine dihydro-chloride] | 0.01 | 0.025 | 0.025 | 0.025 | 0.025 | negligible | above 0.005 wt % | 3.79
